Source: EPA's ToxRefDB 2

Experiments:
dog [1] = conditions: Chronic toxicity, beagle, Oral, Feed, dose end: 12 month, group: systemic
rat [2] = conditions: Multigenerational reproductive toxicity study, sprague dawley, Oral, Feed, dose end: 2 generation
mouse [3] = conditions: Subchronic oral toxicity in rodents, cd1, Feed, dose end: 13 week, group: systemic, systemic / clinical chemistry / alkaline phosphatase (alp/alk) / alkaline phosphatase (alp/alk) + systemic / in life observation / clinical …
dog [4] = conditions: Subchronic oral toxicity in nonrodent, beagle, Feed, dose end: 6 week, group: systemic, systemic / in life observation / body weight / body weight gain + systemic / clinical chemistry / alanine aminotransferase (alt/sgpt) / …
mouse [5] = conditions: Carcinogenicity, cd1, Oral, Feed, dose end: 18 month, group: systemic
mouse [6] = conditions: Subchronic oral toxicity in rodents, cd1, Feed, dose end: 6 week, group: systemic, systemic / in life observation / body weight / body weight gain + systemic / organ weight / liver / absolute + systemic / organ weight / …
rat [7] = conditions: Subchronic oral toxicity in rodents, sprague dawley, Feed, dose end: 13 week, group: systemic
[8] = systemic / clinical chemistry / alanine aminotransferase (alt/sgpt) / alanine aminotransferase (alt/sgpt) + systemic / clinical chemistry / …
[9] = systemic / in life observation / clinical signs / moribundity
[10] = group: offspring, systemic / in life observation / body weight / offspring (pup) weight
[11] = group: offspring, systemic / in life observation / body weight / offspring (pup) weight + systemic / organ weight / liver / relative to body weight
[12] = group: parental, systemic / in life observation / body weight / body weight
[13] = systemic / in life observation / body weight / body weight + systemic / in life observation / body weight / body weight gain
[14] = systemic / clinical chemistry / albumin-globulin ratio / albumin-globulin ratio + systemic / organ weight / liver / relative to body weight
[15] = systemic / in life observation / body weight / body weight + systemic / in life observation / body weight / body weight gain + systemic / in…

O=C(O)C1(C(=O)Nc2ccc(Cl)cc2Cl)CC1 [Cyclanilide] gave an LOAEL (dog [1]; [8]) of 21.2 mg/kg/day, an NOAEL (dog [1]; [8]) of 5.3 mg/kg/day and an LEL (dog [1]; [9]) of 1.3 mg/kg/day. For the same compound, the NEL (dog [1]; [9]) was < 1.3 mg/kg/day, the LEL (rat [2]; [10]) was 20.2 mg/kg/day and the LOAEL (rat [2]; [10]) was 20.2 mg/kg/day. The NEL (rat [2]; [11]) was 2 mg/kg/day, the NOAEL (rat [2]; [11]) was 2 mg/kg/day and the LEL (rat [2]; [12]) was 2 mg/kg/day. For the same compound, the LOAEL (rat [2]; [12]) was 2 mg/kg/day, the NEL (rat [2]; [12]) was < 2 mg/kg/day and the NOAEL (rat [2]; [12]) was < 2 mg/kg/day. It also gave an LEL (mouse [3]) of 364 mg/kg/day, an LOAEL (mouse [3]) of 364 mg/kg/day and an NEL (mouse [3]) of 38 mg/kg/day. The NOAEL (mouse [3]) was 38 mg/kg/day, the LOAEL (dog [4]) was > 20 mg/kg/day and the NOAEL (dog [4]) was ≥ 20 mg/kg/day. The LEL (mouse [5]; [13]) was 8.41 mg/kg/day, the LOAEL (mouse [5]; [13]) was 168 mg/kg/day and the NEL (mouse [5]; [13]) was < 8.41 mg/kg/day. The NOAEL (mouse [5]; systemic / in life observation / body weight / body weight + systemic / in life observation / body weight / body weight gain + systemic / …) was 41.8 mg/kg/day, the LEL (mouse [6]) was 552 mg/kg/day and the LOAEL (mouse [6]) was 552 mg/kg/day. For the same compound, the NEL (mouse [6]) was 192 mg/kg/day, the NOAEL (mouse [6]) was 192 mg/kg/day and the LEL (rat [7]; [14]) was 32.1 mg/kg/day. The NEL (rat [7]; [14]) was < 32.1 mg/kg/day, the LOAEL (rat [7]; [15]) was 113 mg/kg/day and the NOAEL (rat [7]; [15]) was 54.6 mg/kg/day.
